Reference: ChEMBL document CHEMBL5728508, “Inhibitors of lysine specific demethylase-1” (2021)

Target: Lysine-specific histone demethylase 1A (Homo sapiens, UniProt O60341)
Test: In Vitro Enzyme Inhibition Assay: The enzymatic assay of LSD1 activity is based on Time Resolved-Fluorescence Resonance Energy Transfer (TR-FRET) detection. […] Plates were read by EnVision Multilabel Reader in TR-FRET mode (excitation at 320 nm, emission at 615 nm and 665 nm) after 1 hour incubation at room temperature.

IC50: < 100 nM
Structure (SMILES): CCn1c(-c2ccc(OC)cc2)c(-c2ccc(C#N)c(F)c2)cc(N2CCC(N)CC2)c1=O
